Assay results as given in ChEMBL document CHEMBL5728451, “Pyrimidinone derivatives as SHP2 antagonists” (2021).

Target: T1, Tyrosine-protein phosphatase non-receptor type 11 (Homo sapiens, UniProt Q06124)
T1 sequence (Q06124 whole entry): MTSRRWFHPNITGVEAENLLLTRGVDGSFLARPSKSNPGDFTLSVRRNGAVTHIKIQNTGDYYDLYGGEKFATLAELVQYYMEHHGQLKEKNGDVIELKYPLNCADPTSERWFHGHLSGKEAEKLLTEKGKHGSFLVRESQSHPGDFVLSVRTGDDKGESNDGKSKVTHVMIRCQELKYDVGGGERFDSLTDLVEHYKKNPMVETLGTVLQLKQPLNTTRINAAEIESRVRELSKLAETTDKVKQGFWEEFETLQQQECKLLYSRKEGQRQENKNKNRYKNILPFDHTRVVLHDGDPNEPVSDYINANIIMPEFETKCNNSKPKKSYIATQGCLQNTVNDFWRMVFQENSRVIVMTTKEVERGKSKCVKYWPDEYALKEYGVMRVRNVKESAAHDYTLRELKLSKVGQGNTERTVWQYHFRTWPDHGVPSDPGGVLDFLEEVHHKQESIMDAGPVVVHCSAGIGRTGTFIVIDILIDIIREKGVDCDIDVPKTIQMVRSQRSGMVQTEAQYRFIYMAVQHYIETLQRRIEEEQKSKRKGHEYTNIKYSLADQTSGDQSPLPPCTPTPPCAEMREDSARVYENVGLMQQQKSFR
Assay: Biochemical Assay: The inhibition of SHP2 by compounds of the invention was monitored using the surrogate substrate DiFMUP after protein activation by a peptide bearing two appropriately spaced phosphotyrosine. Full length SHP2 protein (Recombinant HumanSHP-2, E. coli derived Ser2Arg593, N-terminal 6His tag from R&D systems; […]) was incubated with activating peptide, IRSI_2pY (New England …

Row | IC50 | SMILES
1 | 2100 nM | Cc1nc(N2CCC3(CCCC3CN)CC2)cc(=O)n1-c1cccc(Cl)c1Cl (configuration not stated)
2 | 1500 nM | Cc1nc(N2CCC(C)(CN)CC2)cc(=O)n1-c1cccc(C(F)(F)F)c1Cl
